The values that follow come from ChEMBL document CHEMBL4219137, “A novel templates of piperazinyl-1,2-dihydroquinoline-3-carboxylates: Synthesis, anti-microbial evaluation and molecular docking studies” (Bioorg Med Chem Lett, 2018).

Assay [1] deals with Staphylococcus aureus. Put plainly: Bactericidal activity against gram-positive Staphylococcus aureus MLS-16 MTCC 2940 incubated for 24 hrs followed by microbial sample growth at Mueller Hinton agar plates. Format: functional. Particulars: MLS-16 MTCC 2940, 24 h.
Assay [2] has as its system Escherichia coli. Nature of the assay: Bactericidal activity against gram-negative Escherichia coli MTCC 739 incubated for 24 hrs followed by microbial sample growth at Mueller Hinton agar plates. Format: functional. Conditions: MTCC 739, 24 h.
In assay [3] the test system is Staphylococcus aureus. Put plainly: Antibacterial activity against gram-positive Staphylococcus aureus MLS-16 MTCC 2940 after 24 hrs by agar well diffusion method. Format: functional. Conditions: MLS-16 MTCC 2940, 24 h. For orientation: Agar diffusion results depend on both activity and mobility in agar.
In assay [4] the test system is Candida albicans. Put plainly: Fungicidal activity against Candida albicans MTCC 3017 incubated for 24 hrs followed by microbial sample growth Sabouraud dextrose agar plates. Format: functional. Conditions: MTCC 3017, 24 h.
Assay [5] has as its system Escherichia coli. Nature of the assay: Antibacterial activity against gram-negative Escherichia coli MTCC 739 after 24 hrs by agar well diffusion method. Conditions: MTCC 739, 24 h. Format: functional.
Assay [6] has as its system Micrococcus luteus. Nature of the assay: Bactericidal activity against gram-positive Micrococcus luteus MTCC 2470 incubated for 24 hrs followed by microbial sample growth at Mueller Hinton agar plates. Format: functional. Particulars: MTCC 2470, 24 h.
In assay [7] the test system is Bacillus subtilis. Nature of the assay: Bactericidal activity against gram-positive Bacillus subtilis MTCC 121 incubated for 24 hrs followed by microbial sample growth at Mueller Hinton agar plates. Conditions: MTCC 121, 24 h. Format: functional.
Assay [8] has as its target T1, 4,4'-diapophytoene synthase (Staphylococcus aureus, UniProt A9JQL9).
T1 sequence (A9JQL9 whole entry): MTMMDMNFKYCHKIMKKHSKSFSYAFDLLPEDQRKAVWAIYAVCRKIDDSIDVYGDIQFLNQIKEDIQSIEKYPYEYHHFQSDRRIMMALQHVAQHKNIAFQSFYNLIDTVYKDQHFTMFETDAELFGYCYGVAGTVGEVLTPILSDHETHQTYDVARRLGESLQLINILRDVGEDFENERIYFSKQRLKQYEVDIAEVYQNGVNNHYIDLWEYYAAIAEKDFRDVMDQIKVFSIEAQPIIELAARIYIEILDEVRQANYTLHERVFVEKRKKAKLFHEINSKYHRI
Nature of the assay: Inhibition of Staphylococcus aureus dehydrosqualene synthase.

Assay [9] deals with Staphylococcus aureus. Put plainly: Antibacterial activity against gram-positive Staphylococcus aureus MTCC 96 after 24 hrs by agar well diffusion method. Format: functional. Conditions: MTCC 96, 24 h.
The test system of assay [10] is Bacillus subtilis. Put plainly: Antibacterial activity against gram-positive Bacillus subtilis MTCC 121 after 24 hrs by agar well diffusion method. Format: functional. Particulars: MTCC 121, 24 h.
Assay [11] concerns Staphylococcus aureus. Nature of the assay: Bactericidal activity against gram-positive Staphylococcus aureus MTCC 96 incubated for 24 hrs followed by microbial sample growth at Mueller Hinton agar plates. Format: functional. Conditions: MTCC 96, 24 h.
Assay [12] has as its system Candida albicans. Nature of the assay: Antifungal activity against Candida albicans MTCC 3017 after 24 hrs by agar well diffusion method. Format: functional. Particulars: MTCC 3017, 24 h.
Assay [13] relates to Micrococcus luteus. Nature of the assay: Antibacterial activity against gram-positive Micrococcus luteus MTCC 2470 after 24 hrs by agar well diffusion method. Particulars: MTCC 2470, 24 h. Format: functional.
For assay [14], the system named is Raoultella planticola. Nature of the assay: Antibacterial activity against gram-negative Klebsiella planticola MTCC 530 after 24 hrs by agar well diffusion method. Format: functional. Conditions: MTCC 530, 24 h.
Assay [15] relates to Raoultella planticola. Put plainly: Bactericidal activity against gram-negative Klebsiella planticola MTCC 530 incubated for 24 hrs followed by microbial sample growth at Mueller Hinton agar plates. Format: functional. Particulars: MTCC 530, 24 h.
Assay [16] deals with Pseudomonas aeruginosa. Put plainly: microbe, parasite or virus in culture. Particulars: MTCC 2453, 24 h.
Description: Bactericidal activity against gram-negative Pseudomonas aeruginosa MTCC 2453 incubated for 24 hrs followed by microbial sample growth at Mueller Hinton agar plates

SMILES strings stand for the structures. ≈ marks a conversion by molar mass, not a printed value.

Usually MIC stands for the least concentration at which growth counts as inhibited. In general, MFC refers to the smallest concentration meeting the test's criterion for killing the fungus. A lower MFC goes with greater fungicidal potency. For orientation: Ki means the dissociation constant of the complex between target and ligand, obtained from inhibition or displacement. Higher therefore signals lower affinity. In the case of `CCOC(=O)c1c(N2CCN(c3ccccc3F)CC2)c2ccccc2n(C)c1=O`, the MBC is 15.6 µg/mL (≈ 38.1 µM) in assay [1]; 7.8 µg/mL (≈ 19 µM) in [2]; 7.8 µg/mL (≈ 19 µM) in assay [6]; 7.8 µg/mL (≈ 19 µM) in [7]; 7.8 µg/mL (≈ 19 µM) in assay [11]. The MIC turned out to be 7.8 µg/mL (≈ 19 µM) in assay [3]; 3.9 µg/mL (≈ 9.52 µM) in assay [5]; 3.9 µg/mL (≈ 9.52 µM) in assay [9]; 3.9 µg/mL (≈ 9.52 µM) in assay [10]; 3.9 µg/mL (≈ 9.52 µM) in [12]; 3.9 µg/mL (≈ 9.52 µM) in assay [13]. In assay [4], this molecule yielded an MFC of 7.8 µg/mL (≈ 19 µM). Besides, the Ki in assay [8] came out at 7.87 µM.
In [4], `CCOC(=O)c1c(N2CCN(c3ccc(F)cc3)CC2)c2ccccc2n(C)c1=O` returned an MFC of 15.6 µg/mL (≈ 38.1 µM). The affinity in assay [8] corresponds to a Ki of 1.26 µM. Moreover, the minimal inhibitory concentration (MIC) in assay [9] was determined as 3.9 µg/mL (≈ 9.52 µM); in assay [12], 7.8 µg/mL (≈ 19 µM). In assay [11], the MBC was 7.8 µg/mL (≈ 19 µM).
Turning to `CCOC(=O)c1c(N2CCN(c3ccc(F)cc3)CC2)c2ccccc2n(CC)c1=O`, the MBC in [1], in assay [2], in assay [6], in assay [7], in assay [11] and in assay [15] was 7.8 µg/mL (≈ 18.4 µM) throughout. Moreover, the MIC in assay [3], in [5], in assay [14], in assay [9], in assay [10] and in assay [12] was 3.9 µg/mL (≈ 9.21 µM) each time. The molecule further showed an MIC in assay [13] of 3.9 µg/mL (≈ 9.21 µM). In assay [4], this molecule yielded an MFC of 7.8 µg/mL (≈ 18.4 µM). In addition, the inhibition constant (Ki) in assay [8] worked out at 6.89 µM.
The molecule `CCOC(=O)c1c(N2CCN(c3ccccc3C(F)(F)F)CC2)c2ccccc2n(C)c1=O` had an MFC in assay [4] of 15.6 µg/mL (≈ 34 µM). The molecule also had an MIC in [12] of 7.8 µg/mL (≈ 17 µM).
`CCOC(=O)c1c(N2CCN(c3ccccc3OC)CC2)c2ccccc2n(CC)c1=O`: in [8], the Ki stood at 14 µM. Further, the minimum inhibitory concentration (MIC) in assay [9] turned out to be 3.9 µg/mL (≈ 8.95 µM). Moreover, the MBC in assay [11] stood at 7.8 µg/mL (≈ 17.9 µM).
The molecule `Clc1ccc(COC(Cn2ccnc2)c2ccc(Cl)cc2Cl)c(Cl)c1` (stereo not given) [MICONAZOLE] returned a minimal fungicidal concentration (MFC) in [4] of 7.8 µg/mL (≈ 18.7 µM). The molecule further registered an MIC in assay [12] of 7.8 µg/mL (≈ 18.7 µM).
As for `O=C(O)c1cn(C2CC2)c2cc(N3CCNCC3)c(F)cc2c1=O` [CIPROFLOXACIN], the MBC in assay [1], in assay [2], in [6], in assay [7], in assay [11] and in assay [16] was 0.9 µg/mL (≈ 2.72 µM) in each case. The MBC in [15] stood at 0.9 µg/mL (≈ 2.72 µM). Besides, the MIC in assay [3], in assay [5], in assay [14], in assay [9], in assay [10] and in assay [13] was 0.9 µg/mL (≈ 2.72 µM) each time.
In turn, `CCOC(=O)c1c(N2CCN(C(=O)OC(C)(C)C)CC2)c2ccccc2n(C)c1=O` gave an inhibition constant Ki in [8] of 5.19 µM. Besides, in assay [9], the minimal inhibitory concentration (MIC) came out at 3.9 µg/mL (≈ 9.39 µM). This molecule yielded an MBC in assay [11] of 7.8 µg/mL (≈ 18.8 µM).
On to `CCOC(=O)c1c(N2CCCC2)c2ccccc2n(CC)c1=O`, for which, in assay [6], the MBC was determined as 15.6 µg/mL (≈ 49.6 µM). Also, the MIC in assay [13] was 7.8 µg/mL (≈ 24.8 µM).
Take `CCOC(=O)c1c(N2CCN(c3ccccc3F)CC2)c2ccccc2n(CC)c1=O`: the MIC was 7.8 µg/mL (≈ 18.4 µM) in assay [14] and 3.9 µg/mL (≈ 9.21 µM) in [9]. Besides, the inhibition constant Ki in [8] is 8.33 µM. Further, the MBC in [11] and in assay [15] was 7.8 µg/mL (≈ 18.4 µM) throughout.
Regarding `CCOC(=O)c1c(N2CCN(c3cccc(OC)c3)CC2)c2ccccc2n(CC)c1=O`, the MBC in assay [6] was 15.6 µg/mL (≈ 35.8 µM); in assay [11], 7.8 µg/mL (≈ 17.9 µM). Also, the affinity in assay [8] corresponds to a Ki of 15.7 µM. Moreover, the minimal inhibitory concentration (MIC) in [9] came to 3.9 µg/mL (≈ 8.95 µM); in assay [13], 7.8 µg/mL (≈ 17.9 µM).
For the molecule `CCOC(=O)c1c(N2CCN(c3ccccc3C(F)(F)F)CC2)c2ccccc2n(CC)c1=O`, the MBC in assay [2] and in [7] was 15.6 µg/mL (≈ 32.9 µM) each time. The MFC in assay [4] was 15.6 µg/mL (≈ 32.9 µM). For the same molecule, the MIC in assay [5], in assay [10] and in assay [12] was 7.8 µg/mL (≈ 16.5 µM) each time.
In assay [8], `CCOC(=O)c1c(N2CCN(c3ccccc3OC)CC2)c2ccccc2n(C)c1=O` had an inhibition constant Ki of 19.8 µM. This molecule had a minimal inhibitory concentration (MIC) in assay [9] of 3.9 µg/mL (≈ 9.25 µM). Also, in assay [11], the MBC is 7.8 µg/mL (≈ 18.5 µM).
The corresponding values for `CCOC(=O)c1c(N2CCN(C(=O)OC(C)(C)C)CC2)c2ccccc2n(CC)c1=O` are 20.2 µM, 3.9 µg/mL (≈ 9.08 µM) and 7.8 µg/mL (≈ 18.2 µM).
